Laboratory results as given in PubChem BioAssay (NCI).
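Protocol summary: plate cells (96-well), add compound at 5 concentrations, incubate 48 h, interpolate endpoints linearly. GI50 marks 50% less growth. Definition used: TGI = concentration required for complete inhibition of growth.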

How the values were obtained:
Assay in all cases: growth of human tumour cells (NCI), 48 h
[1] = test system: BT-549 breast
[2] = test system: MDA-N
[3] = test system: DMS 114 small cell lung
[4] = test system: DMS 273 small cell lung
[5] = test system: KM20L2 colon
[6] = test system: LXFL 529 NSCLC
[7] = test system: RXF-631 renal
[8] = test system: SNB-78 CNS
[9] = test system: M19-MEL melanoma

Row | SMILES | GI50 [1] [µM] | TGI [1] [µM] | TGI [2] [µM] | TGI [3] [µM] | TGI [4] [µM] | TGI [5] [µM] | TGI [6] [µM] | TGI [7] [µM] | TGI [8] [µM] | TGI [9] [µM]
1 | COc1cc2c3c(n(CCCCOC(=O)C(Cl)(Cl)Cl)c(=O)c2cc1OC)-c1cc2c(cc1C3=O)OCO2 | 57.1 | > 100 |  |  |  |  |  |  |  | 
2 | CON(C)C(=O)N1N=C(c2cc(F)ccc2F)SC1(CCCN)c1ccccc1 (stereo unspecified) | 0.302 | 17.5 |  |  |  |  |  |  |  | 
3 | O=C(/C=C\n1cnc(-c2cc(C(F)(F)F)cc(C(F)(F)F)c2)n1)NNc1cnccn1 | 0.0385 | 2.82 |  |  |  |  |  |  |  | 
4 | CCCCCN(CCCCC)CC(O)c1ccc(Cl)c2ccccc12 (stereo unspecified) | 16.3 | 33.7 |  |  |  |  |  |  |  | 
5 | O=C1OC(c2ccco2)=N/C1=C\c1cccc([N+](=O)[O-])c1 |  | > 100 | > 100 |  |  |  |  |  |  | 
6 | COc1ccc(/C(Cl)=C(\C=O)c2ccc([N+](=O)[O-])cc2)cc1 |  |  |  | 68.5 | 58.7 | 41.8 | > 27.6 | 68.3 | 50.1 | 
7 | COc1ccc2nc3cc(Cl)ccc3c(NCCN)c2c1 | 1.81 | 3.39 |  |  |  |  |  |  |  | 
8 | Cc1ccc2[nH]c(C(=O)NN3C(=O)C(C)SC34CCCC(C)C4)c(-c3ccccc3)c2c1 (stereo unspecified) | 76.7 | > 100 |  |  |  |  |  |  |  | 
9 | O=c1[nH]c(=O)n(C2OC(CO)C(O)C(O)C2O)cc1F (stereo unspecified) |  | > 100 | > 100 | > 100 |  | > 100 | > 100 |  | > 100 | > 100
10 | CN(C)C(c1ccccc1)C(O)c1ccccc1 (stereo unspecified) |  |  |  | > 100 | > 100 | > 100 | > 100 | > 100 | > 100 | > 100
11 | c1cc2c(ncc3cscc32)s1 |  |  | > 100 | > 100 | > 100 |  | > 100 | > 100 | > 100 | > 100
12 | COc1cc2c(c(OC)c1OC)-c1c(cc3c(c1OC)OCO3)C1OC2C(C)C1C (stereo unspecified) (tested in a mixture with another compound) |  | > 100 | > 100 |  |  |  |  |  |  | 
13 | COC1=CC2(C=CC1=O)c1cc(OC)c(OC)cc1CCN2C(=O)c1ccccc1 (stereo unspecified) |  |  |  | > 100 | > 100 |  | > 100 |  | > 100 | 
14 | Cc1ccc(-c2cc(=O)c3cc(C)c(C)c(C(=O)O)c3o2)cc1C |  |  |  | > 100 | > 100 | > 100 | > 100 | > 100 | > 100 | > 100
15 | O=C(/C=C/c1c(O)ccc2ccccc12)c1ccccc1 |  |  |  | > 100 | > 100 | > 100 | > 100 | > 100 | > 100 | > 100
16 | Fc1ccc(C2SCc3nc4ccccc4n32)cc1Cl (stereo unspecified) |  |  |  | 57.4 |  | > 100 | 57.8 | > 100 | > 100 | 37.1

Row | SMILES | GI50 [1] [µM] | TGI [1] [µM] | TGI [2] [µM] | TGI [3] [µM] | TGI [4] [µM] | TGI [5] [µM] | TGI [6] [µM] | TGI [7] [µM] | TGI [8] [µM] | TGI [9] [µM]
17 | Cc1[nH]c2ccccc2c1C1Cc2ccccc2N1C(=O)/C(Cl)=C/c1ccccc1 (stereo unspecified) |  |  |  | > 100 | > 100 | > 100 | > 100 | > 100 | > 100 | > 100
18 | CC(C)c1ccc(C(c2ccc(OCC(=O)O)cc2)c2ccc(C(C)C)cc(=O)c2O)c(O)c(=O)c1 |  |  |  | 8.25 | 11.2 | > 100 | > 100 | 31.3 | 56.7 | 69.9
19 | COC(=O)[C@H](Cc1c[nH]c2ccccc12)NC(=O)[C@@H](OC)[C@@H]1Cc2cc3cc(OC4CC(OC5CC(O)C(O)C(C)O5)C(O)C(C)O4)c(C)c(O)c3c(O)c2C(=O)[C@H]1OC1CC(OC2CC(OC3CC(C)(O)C(O)C(C)O3)C(O)C(C)O2)C(O)C(C)O1 (stereo partly specified) | 0.00527 | 0.031 |  |  |  |  |  |  |  | 
20 | CCc1ccc(Nc2ccc([N+](=O)[O-])cc2[N+](=O)[O-])cc1 |  |  |  | > 100 | > 100 | > 100 | > 100 |  | > 100 | > 100
21 | O=C(/C(=C/c1cccc([N+](=O)[O-])c1)c1ccccc1)c1ccccc1 | 3.38 | 13.1 |  |  |  |  |  |  |  | 
22 | N#CCc1ccc(C(C#N)/C(CCCC(=O)Nc2cccc([N+](=O)[O-])c2)=N/NC(N)=S)cc1 (stereo unspecified) |  |  |  | > 100 | > 100 | > 100 | > 100 | > 100 | > 100 | 
23 | Cc1ccc2c(c1)CN(C(=O)CCC(=O)OCc1ccccc1)c1ccc(C)cc1CN2C(=O)CCC(=O)OCc1ccccc1 |  | > 100 | > 100 | > 100 | > 100 | > 100 | > 100 |  | > 100 | > 100
24 | CCCCCCC(=O)C/C(=N/NC(N)=S)C(=O)NC1C2CC3CC(C2)CC1C3 (stereo unspecified) |  |  |  |  |  | > 100 | > 100 |  | > 100 | > 100
25 | COc1cccc(N2C(=O)[C@H]3CC(C)c4c([nH]c5ccccc45)[C@H]3C2=O)c1 (stereo partly specified) |  |  |  |  | > 100 | > 100 | > 100 |  | > 100 | > 100
26 | Cc1ccc(NC(=O)c2sc3nc(C)c(C(O)c4ccccc4)cc3c2N)cc1 (stereo unspecified) | 1.15 | 33.7 |  |  |  |  |  |  |  | 
27 | COC(C(O)c1ccc2c(c1)OCO2)P(=O)(c1ccccc1)c1ccccc1 (stereo unspecified) |  |  |  | > 100 | > 100 |  |  |  | > 100 | > 100
28 | COc1cc2c3c(n(CCNCCCNCCn4c5c(c6cc(OC)c(OC)cc6c4=O)C(=O)c4ccccc4-5)c(=O)c2cc1OC)-c1ccccc1C3=O | 2.87 | > 100 |  |  |  |  |  |  |  | 
29 | Cc1ccc2c3c(c(=O)[nH]c2c1)C1(C(C#N)=C(N)O3)c2cc(Br)ccc2-c2ccc(Br)cc21 | 3.93 | 19.8 |  |  |  |  |  |  |  | 
30 | CSc1nc2cc(S(=O)(=O)N3CCCCC3)ccc2s1 |  | > 100 | > 100 |  |  |  |  |  |  | 
31 | CC1=N/C(=C\c2cccc([N+](=O)[O-])c2)C(=O)O1 |  |  |  | > 100 |  | > 100 | > 100 |  | > 100 | > 100
